# Test results: US20100029752A1, “NOVEL COMPOUNDS, PHARMACEUTICAL COMPOSITIONS CONTAINING SAME, AND METHODS OF USE FOR SAME” (priority 2005, published 2010)
# What was measured:
# FAS = target: T1, FAS (Homo sapiens, UniProt P49327); assay: FAS (IC50) marked (SB); type: biochemical; conditions: value marked (SB), not defined
# T1 construct: Human FAS was purified from cultured ZR-75-1 human breast cancer cells; endogenous in cells
# [1] = system: fatty acid synthesis pathway activity in MCF-7 human breast cancer cells; assay: [14C]acetate incorporation into total lipids; type: cell-based; conditions: Homo sapiens, MCF7; MCF-7 cells, [14C]acetate into lipids
# Protocol: This assay measures the incorporation of [^14C]acetate into total lipids and is a measure of fatty acid synthesis pathway activity in vitro. It is utilized to measure inhibition of fatty acid synthesis in vitro.
# MCF-7 human breast cancer cells cultured as above, are plated at 5×10^4 cells per well in 24-well plates. Following overnight incubation, the compounds to be tested, solubilized in DMSO, are added at 5, 10, and 20 μg/ml in triplicate, with lower concentrations tested if necessary. DMSO is added to triplicate wells for a vehicle control. C75 is run at 5 and 10 μg/ml in triplicate as positive controls. After 4 hours of incubation, 0.25 μCi of [^14C]acetate (10 μl volume) is added to each well.
# After 2 hours of additional incubation, medium is aspirated from the wells and 800 μl of chloroform:methanol (2:1) and 700 μl of 4 mM MgCl2 is added to each well. Contents of each well are transferred to 1.5 Eppendorf tubes, and spun at full-speed for 2 minutes in a high-speed Eppendorf Microcentrifuge 5415D. After removal of the aqueous (upper) layer, an additional 700 μl of chloroform:methanol (2:1) and 500 μl of 4 mM MgCl2 are added to each tube and then centrifuged for 1 minutes as above. The aqueous layer is removed with a Pasteur pipette and discarded. An additional 400 μl of chloroform:methanol (2:1) and 200 μl of 4 mM MgCl2 are added to each tube, then centrifuged and aqueous layer is discarded. The lower (organic) phase is transferred into a scintillation vial and dried at 40° C. under N2 gas. Once dried, 3 ml of scintillant (APB #NBC5104) is added and vials are counted for ^14C. The Beckman Scintillation counter calculates the average cpm values for triplicates.
# The IC50 for the compounds is defined as the concentration of drug leading to a 50% reduction in [^14C]acetate incorporation into lipids compared to controls. This is determined by plotting the average cpm for each inhibitor concentration tested, performing linear regression and computing the best-fit line, r^2 values, and 95% confidence intervals. The average cpm values are computed by the Beckman scintillation counter (Model LS6500) for each compound concentration. Computation of linear regression, best-fit line, r^2, and 95% confidence intervals are calculated using Prism Version 3.0 (Graph Pad Software).
# [2] = system: MCF-7 human breast cancer cells; assay: XTT cytotoxicity assay (M / MCF7); type: cell-based; conditions: MCF-7 cells, 72 hours
# Protocol: The XTT assay is a non-radioactive alternative for the [^51Cr] release cytotoxicity assay. XTT is a tetrazolium salt that is reduced to a formazan dye only by metabolically active, viable cells. The reduction of XTT is measured spectrophotometrically as OD490-OD650. To measure the cytotoxicity of specific compounds against cancer cells, 9×10^3 MCF-7 human breast cancer cells, obtained from the American Type Culture Collection are plated per well in 96 well plates in DMEM medium with 10% fetal bovine serum, insulin, penicillin, and streptomycin. Following overnight culture at 37° C. and 5% CO2, the compounds to be tested, dissolved in DMSO, are added to the wells in 1 μl volume at the following concentrations: 80, 40, 20, 10, 5, 2.5, 1.25, and 0.625 μg/ml in triplicate. Additional concentrations are tested if required. 1 μl of DMSO is added to triplicate wells are the vehicle control. C75 is run at 40, 20, […], and 5 μg/ml in triplicate as positive controls. After 72 hours of incubation, cells are incubated for 4 hours with the XTT reagent as per manufacturer's instructions (Cell Proliferation Kit 11 (XTT) Roche). Plates are read at OD490 and OD650 on a Molecular Devices SpectraMax Plus Spectrophotometer. Three wells containing the XTT reagent without cells serve as the plate blank. XTT data are reported as OD490-OD650. Averages and standard error of the mean are computed using SOFTmax Pro software ([…]). The IC50 for the compounds is defined as the concentration of drug leading to a 50% reduction in OD490-OD650 compared to controls. The OD490-OD650 are computed by the SOFTmax PRO software (Molecular Devices) for each compound concentration. IC50 is calculated by linear regression, plotting the FAS activity as percent of control versus drug concentrations. Linear regression, best-fit line, r^2, and 95% confidence intervals are determined using Prism Version 3.0 (Graph Pad Software).
# OV = assay: XTT cytotoxicity assay (OV); type: cell-based; conditions: (OV) cells
# Protocol: The XTT assay is a non-radioactive alternative for the [^51Cr] release cytotoxicity assay. XTT is a tetrazolium salt that is reduced to a formazan dye only by metabolically active, viable cells. The reduction of XTT is measured spectrophotometrically as OD490-OD650. After 72 hours of incubation, cells are incubated for 4 hours with the XTT reagent as per manufacturer's instructions (Cell Proliferation Kit 11 (XTT) Roche). Plates are read at OD490 and OD650 on a Molecular Devices SpectraMax Plus Spectrophotometer. Three wells containing the XTT reagent without cells serve as the plate blank. XTT data are reported as OD490-OD650. Averages and standard error of the mean are computed using SOFTmax Pro software (Molecular Dynamics). The IC50 for the compounds is defined as the concentration of drug leading to a 50% reduction in OD490-OD650 compared to controls. The OD490-OD650 are computed by the SOFTmax PRO software (Molecular Devices) for each compound concentration. IC50 is calculated by linear regression, plotting the FAS activity as percent of control versus drug concentrations. Linear regression, best-fit line, r^2, and 95% confidence intervals are determined using Prism Version 3.0 (Graph Pad Software).
# [3] = system: MCF-7 human breast cancer cells; assay: Crystal violet cell growth assay; type: cell-based; conditions: MCF7, MCF-7 cells, 72 hours, read-out: Cr. Violet (IC50)
# Protocol: The crystal violet assay measures cell growth but not cytotoxicity. This assay employs crystal violet staining of fixed cells in 96-well plates with subsequent solubilization and measurement of OD490 on a spectrophotometer. The OD490 corresponds to cell growth per unit time measured. Cells are treated with the compounds of interest or vehicle controls and IC50 for each compound is computed.
# To measure the cytotoxicity of specific compounds against cancer cells, 5×10^4 MCF-7 human breast cancer cells, obtained from the American Type Culture Collection are plated per well in 24 well plates in DMEM medium with 10% fetal bovine serum, penicillin, and streptomycin. Following overnight culture at 37° C. and 5% CO2, the compounds to be tested, dissolved in DMSO, are added to the wells in 1 μl volume at the following concentrations: 50, 40, 30, 20, and 10 μg/ml in triplicate. Additional concentrations are tested if required. 1 μl of DMSO is added to triplicate wells are the vehicle control. C75 is run at 10, and 5 μg/ml in triplicate as positive controls.
# After 72 hours of incubation, cells are stained with 0.5 ml of Crystal Violet stain (0.5% in 25% methanol) in each well. After 10 minutes, wells are rinsed, air dried, and then solubilized with 0.5 ml 10% sodium dodecylsulfate with shaking for 2 hours. Following transfer of 100 μl from each well to a 96-well plate, plates are read at OD490 on a Molecular Devices SpectraMax Plus Spectrophotometer Average OD490 values are computed using SOFTmax Pro Software (Molecular Devices) and IC50 values are determined by linear regression analysis using Prism version 3.02 (Graph Pad Software, San Diego).
# HIV protease = HIV protease (Human immunodeficiency virus type 1 group M subtype B, UniProt P04585); conditions: cited from earlier work
# [4] = system: Mycobacterium tuberculosis; conditions: in vitro; cited from earlier work
# Weight loss screen = type: in vivo, Balb/C mice; conditions: 60 mg/kg intraperitoneally, day 2
# Protocol: Balb/C mice (Jackson Labs) are utilized for the initial weight loss screening. Animals are housed in temperature and 12 hour day/night cycle rooms and fed mouse chow and water ad lib. Three mice are utilized for each compound tested with vehicle controls in triplicate per experiment. For the experiments, mice are housed separately for each compound tested three mice to a cage. Compounds are diluted in DMSO at 10 mg/ml and mice are injected intraperitoneally with 60 mg/kg in approximately 100 μl of DMSO or with vehicle alone. Mice are observed and weighed daily; average weights and standard errors are computed with Excel (Microsoft). The experiment continues until treated animals reach their pretreatment weights. Select compounds are tested in animals housed in metabolic cages. Dosing of animals are identical to the screening experiments with three animals to a single metabolic cage. Animal weights, water and food consumption, and urine and feces production are measured daily.
# [5] = target: rat liver acyl-CoA synthetase; conditions: rat liver enzyme; read-out: 50% inhibition of rat liver acyl-CoA synthetase; cited from earlier work
# Raji cells = conditions: cited from earlier work
# T1 sequence (P49327 whole entry): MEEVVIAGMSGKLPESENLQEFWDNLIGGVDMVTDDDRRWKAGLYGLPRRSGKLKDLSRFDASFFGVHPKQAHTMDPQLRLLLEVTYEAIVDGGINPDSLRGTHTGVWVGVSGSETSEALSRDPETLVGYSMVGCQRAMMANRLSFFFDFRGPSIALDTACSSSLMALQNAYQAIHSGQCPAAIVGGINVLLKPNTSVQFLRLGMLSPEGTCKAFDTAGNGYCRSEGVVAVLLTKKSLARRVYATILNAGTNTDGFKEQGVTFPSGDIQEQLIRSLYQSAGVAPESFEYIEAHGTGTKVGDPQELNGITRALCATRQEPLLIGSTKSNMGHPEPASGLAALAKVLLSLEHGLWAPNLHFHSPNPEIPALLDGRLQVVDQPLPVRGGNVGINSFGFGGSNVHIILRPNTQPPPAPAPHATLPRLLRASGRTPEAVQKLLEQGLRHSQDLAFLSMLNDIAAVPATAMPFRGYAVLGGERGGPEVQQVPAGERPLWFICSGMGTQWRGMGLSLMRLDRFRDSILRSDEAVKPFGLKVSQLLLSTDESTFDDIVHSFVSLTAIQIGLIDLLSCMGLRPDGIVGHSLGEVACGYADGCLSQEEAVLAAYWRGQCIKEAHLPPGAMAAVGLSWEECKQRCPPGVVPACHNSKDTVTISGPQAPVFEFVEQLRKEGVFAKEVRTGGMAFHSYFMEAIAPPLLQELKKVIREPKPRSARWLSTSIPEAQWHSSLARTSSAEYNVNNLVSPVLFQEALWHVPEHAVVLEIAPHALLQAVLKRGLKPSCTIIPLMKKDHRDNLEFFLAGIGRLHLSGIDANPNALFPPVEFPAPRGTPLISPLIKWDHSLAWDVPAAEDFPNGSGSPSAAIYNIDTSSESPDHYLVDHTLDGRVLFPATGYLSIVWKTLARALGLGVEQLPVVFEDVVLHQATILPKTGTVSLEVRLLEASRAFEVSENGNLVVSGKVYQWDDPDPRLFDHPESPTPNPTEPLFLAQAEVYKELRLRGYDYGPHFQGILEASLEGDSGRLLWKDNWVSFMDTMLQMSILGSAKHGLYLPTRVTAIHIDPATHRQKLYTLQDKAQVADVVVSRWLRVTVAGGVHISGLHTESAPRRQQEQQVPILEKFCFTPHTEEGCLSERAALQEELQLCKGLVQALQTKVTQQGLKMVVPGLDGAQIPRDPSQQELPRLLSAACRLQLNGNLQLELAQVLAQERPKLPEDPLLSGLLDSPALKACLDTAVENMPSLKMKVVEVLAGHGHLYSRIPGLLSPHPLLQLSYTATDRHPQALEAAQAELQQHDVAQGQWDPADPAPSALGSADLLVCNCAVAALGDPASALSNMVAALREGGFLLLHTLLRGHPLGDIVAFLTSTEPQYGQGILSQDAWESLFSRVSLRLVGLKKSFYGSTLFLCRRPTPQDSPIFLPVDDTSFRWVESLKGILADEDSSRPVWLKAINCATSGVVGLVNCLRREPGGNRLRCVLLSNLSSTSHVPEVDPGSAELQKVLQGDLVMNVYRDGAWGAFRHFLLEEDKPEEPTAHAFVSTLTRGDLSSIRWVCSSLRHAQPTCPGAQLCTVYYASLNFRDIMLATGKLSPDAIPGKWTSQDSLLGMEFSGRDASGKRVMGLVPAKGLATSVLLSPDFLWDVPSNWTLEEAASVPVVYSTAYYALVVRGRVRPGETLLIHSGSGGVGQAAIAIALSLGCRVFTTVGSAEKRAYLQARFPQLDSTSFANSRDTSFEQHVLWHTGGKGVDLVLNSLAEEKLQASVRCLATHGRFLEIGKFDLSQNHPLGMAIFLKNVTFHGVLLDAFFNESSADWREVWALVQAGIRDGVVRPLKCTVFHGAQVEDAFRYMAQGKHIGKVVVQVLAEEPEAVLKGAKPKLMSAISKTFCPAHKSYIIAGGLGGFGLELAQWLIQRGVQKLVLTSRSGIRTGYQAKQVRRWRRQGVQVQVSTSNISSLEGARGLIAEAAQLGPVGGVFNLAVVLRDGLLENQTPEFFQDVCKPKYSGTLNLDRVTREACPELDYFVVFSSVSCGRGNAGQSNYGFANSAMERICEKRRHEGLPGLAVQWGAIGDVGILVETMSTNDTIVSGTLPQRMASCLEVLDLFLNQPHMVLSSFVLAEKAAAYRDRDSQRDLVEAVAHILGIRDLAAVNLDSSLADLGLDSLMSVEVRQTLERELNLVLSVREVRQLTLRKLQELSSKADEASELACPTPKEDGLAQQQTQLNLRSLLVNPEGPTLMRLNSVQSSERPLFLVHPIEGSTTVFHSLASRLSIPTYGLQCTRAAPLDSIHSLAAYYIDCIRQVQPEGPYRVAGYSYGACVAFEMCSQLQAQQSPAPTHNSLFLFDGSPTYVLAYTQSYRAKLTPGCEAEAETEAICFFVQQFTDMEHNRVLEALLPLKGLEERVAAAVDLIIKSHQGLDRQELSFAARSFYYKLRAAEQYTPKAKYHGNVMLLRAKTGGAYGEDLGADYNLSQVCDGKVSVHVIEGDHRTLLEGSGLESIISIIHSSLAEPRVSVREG
Compound,IC50 [2],IC50 (OV),IC50 (FAS),other results
CCCCCCCCNC(=O)c1cc(OCC(=O)OC)cs1,41.1 ± 2.6 µg/mL,55 µg/mL,,FAS (IC50) (SB) (FAS): Neg (SB); IC50 [1]: 15.8 µg/mL; IC50 [3]: 43.4 µg/mL
"C/C=C/C/C=C/CCC(=O)[C@H]1O[C@H]1C(N)=O [cerulenin, (2S,3R)-2,3-epoxy-4-oxo-7,10 dodecadienoyl amide]",,,,concentration for inhibition of viral HIV protease (HIV protease): 5 mg/mL; activity against Mycobacterium tuberculosis [4]: no activity
O=C(NNC(=O)c1cc(O)cs1)c1ccco1,> 80 µg/mL,> 80 µg/mL,135 µM,Weight Loss (Weight loss screen): 60 mg/kg: 1.5% (day 2)
"CCCC=CCC=CC=CC=NN=NO [Triacsin C, 1-hydroxy-3-(E, E, E-2′,4′,7′-undecatrienylidine) triazene]",,,,IC50 [5]: 8.7 µM; concentration causing growth inhibition in Raji cells (Raji cells): 1.0 µM
O=C(NNc1ccc(Cl)cc1)c1cc(O)cs1,56.9 µg/mL,30 µg/mL,510 µM,
